Test results as given in patent US5622960A, “Topoisomerase II inhibitors and therapeutic uses therefor” (The United States of America as represented by the …, priority 1992, dated 1997).

Experiments:
Topoisomerase II = test: topoisomerase II inhibition: drug-induced DNA cleavage in presence of HL-60 extract or purified top 2; assay type: biochemical; settings: for top 2 inhibition / top 2 activity (in words): DNA cleavage assays; for Topoisomerase II inhibition: class symbols without legend, HL-60 extract or purified top 2; for effect of hydroxyl substitution on top 2 activity: 1 versus 6, DMDP versus DMEP
From the text: Because the azatoxin skeleton is synthetically accessible, a large number of derivatives are readily prepared and screened for top 2 inhibitory activity in accordance with the present invention. Such screening can be effected by means of an in vitro assay which employs purified top 2 and ^32 P-end-labelled DNA. In such an assay, top 2 inhibition by a test substance results in DNA fragmentation which can be detected by agarose gel electrophoresis, as described by Fesen and Pommier, J. Biol. Chem. 19:11354-59 (1989); by the filter-binding assay described by Pommier et al., Biochem. 24:6410-16 (1985); or by the sodium dodecylsulfate precipitation assay employed by Nelson et al., Proc. Nat'l Acad. Sci. USA81: 1361-65 (1984).
(§1) Chemicals, and enzymes: Azatoxin and its derivatives, as well as the demethyldesoxypodophyllotoxin (DMDP) and demethylepipodophyllotoxin (DMEP), were synthesized by conventional methods. The compounds m-AMSA and mitoxantrone were obtained from the Drug Synthesis and Chemistry Branch, National Cancer Institute, Bethesda, Md. The compounds VP-16 and VM-26 were obtained from Bristol-Myers Company (Wallingford, Conn.). Drug stock solutions were made in dimethylsulfoxide at 10 mM. Further dilutions were made in distilled water. Various other reagents, including simian virus 40 (SV40) and c-myc human DNA inserts in plasmid pBR322, restriction endonucleases, DNA topoisomerase I, T4 polynucleotide kinase, calf intestine phosphatase, agarose and polyacrylamide/bis, were purchased from Bethesda Research Laboratories (Gaithersburg, Md.), from the American Type Culture Collection (Rockville, Md.) or from New England Biolabs (Beverly, Mass.). [Gamma-^32 P]ATP was purchased from New England Nuclear Research Products (Boston, Mass.).
(§2) DNA topoisomerase II was purified from mouse leukemia L1210 cell nuclei as described, for example, by Pommier et al. (1985), supra, and was stored at -70° C. in 40% (v/v) glycerol, 0.35 M NaCl, 5 mM MgCl2, 1 mM KH2 PO4, 0.2 mM dithiothreitol and 0.1 mM phenylmethanesulfonyl fluoride (pH 6.4). The purified enzyme yielded a single 170 kDa band after silver staining of SDS-polyacrylamide gels, in accordance with the description of Pommier et al., Cancer Res. 46: 3075-81 (1986).
(§3) Preparation of end-labeled DNA fragments: DNA fragments were 5' end-labeled as described, for example, by Fesen and Pommier (1989), supra. Briefly, native DNA was first linearized with a restriction enzyme, […] then the 5'-DNA termini were dephosphorylated with calf alkaline phosphatase and labeled with [gamma-^32 P]ATP using T4 polynucleotide kinase. For double-strand breaks assays using HL-60 nuclear extract, SV40 DNA was digested with BclI endonuclease and labeled at both DNA termini. For sequencing experiments, SV40 and c-myc DNAs were first 5'-end labeled at the XhoII and XbaI restriction sites, respectively. Then, in order to generate uniquely 5'-end-labeled fragments, labeled DNA was subjected to a second enzyme digestion, PflMI for SV40, and EcoRI plus HindIII for c-myc DNA. The resulting DNA fragments were separated by agarose gel electrophoresis and isolated by electroelution. Purification by phenol-chloroform extraction and ethanol precipitation were included between each step and at the end of the labeling procedures, pursuant to Pommier et al., J. Molec. Biol. 222: 909-24 (1991).
Topoisomerase II-induced DNA cleavage reactions: DNA fragments were equilibrated with or without drug in 10 mM Tris-HCl, pH 7.5, 50 mM KCl, 5 mM MgCl2 0.1 mM EDTA, 1 mM ATP and 15 μg/ml bovine serum albumin for 5 minutes before addition of purified topoisomerase II (40 to 70 ng) or HL-60 nuclear extract in 20 μl final reaction volume. Reactions were stopped by adding sodium dodecyl sulfate (SDS) to a final concentration of 1% and proteinase K to 400 μg/ml, followed by incubation for 1 hour at 40° C. […]

SV40 DNA = test: DNA unwinding (intercalation) assay with excess topoisomerase I; assay type: biochemical, simian virus 40; settings: relaxed SV40 DNA, excess topoisomerase I; concentrations as high as 1 mM
Method: To assess DNA unwinding, see Pommier et al., Nucleic Acids Res. 15: 6713-31(1987), the DNA was relaxed first by treatment for 15 minutes with top 1 (20 units), after which the test agent was added. These steps were carried out at 37° C. DNA-agent-top 1 mixtures were incubated for an additional 30 minutes and then stopped as described above. Samples were then subjected to agarose gel electrophoresis as described above.
This was also the case for the 2 azatoxin isomers, 8 and 10, and for the demethylepipodophyllotoxins, DMDP and DMEP. Similar results were obtained with supercoiled DNA.

[1] = target: T1, purified murine leukemia top 2 (Mus musculus, UniProt Q01320); test: Sequencing of topoisomerase II cleavage sites (SV40 and c-myc DNA); assay type: biochemical
T1 construct: single 170 kDa band on silver-stained SDS-PAGE
T1 sequence (Q01320 whole entry): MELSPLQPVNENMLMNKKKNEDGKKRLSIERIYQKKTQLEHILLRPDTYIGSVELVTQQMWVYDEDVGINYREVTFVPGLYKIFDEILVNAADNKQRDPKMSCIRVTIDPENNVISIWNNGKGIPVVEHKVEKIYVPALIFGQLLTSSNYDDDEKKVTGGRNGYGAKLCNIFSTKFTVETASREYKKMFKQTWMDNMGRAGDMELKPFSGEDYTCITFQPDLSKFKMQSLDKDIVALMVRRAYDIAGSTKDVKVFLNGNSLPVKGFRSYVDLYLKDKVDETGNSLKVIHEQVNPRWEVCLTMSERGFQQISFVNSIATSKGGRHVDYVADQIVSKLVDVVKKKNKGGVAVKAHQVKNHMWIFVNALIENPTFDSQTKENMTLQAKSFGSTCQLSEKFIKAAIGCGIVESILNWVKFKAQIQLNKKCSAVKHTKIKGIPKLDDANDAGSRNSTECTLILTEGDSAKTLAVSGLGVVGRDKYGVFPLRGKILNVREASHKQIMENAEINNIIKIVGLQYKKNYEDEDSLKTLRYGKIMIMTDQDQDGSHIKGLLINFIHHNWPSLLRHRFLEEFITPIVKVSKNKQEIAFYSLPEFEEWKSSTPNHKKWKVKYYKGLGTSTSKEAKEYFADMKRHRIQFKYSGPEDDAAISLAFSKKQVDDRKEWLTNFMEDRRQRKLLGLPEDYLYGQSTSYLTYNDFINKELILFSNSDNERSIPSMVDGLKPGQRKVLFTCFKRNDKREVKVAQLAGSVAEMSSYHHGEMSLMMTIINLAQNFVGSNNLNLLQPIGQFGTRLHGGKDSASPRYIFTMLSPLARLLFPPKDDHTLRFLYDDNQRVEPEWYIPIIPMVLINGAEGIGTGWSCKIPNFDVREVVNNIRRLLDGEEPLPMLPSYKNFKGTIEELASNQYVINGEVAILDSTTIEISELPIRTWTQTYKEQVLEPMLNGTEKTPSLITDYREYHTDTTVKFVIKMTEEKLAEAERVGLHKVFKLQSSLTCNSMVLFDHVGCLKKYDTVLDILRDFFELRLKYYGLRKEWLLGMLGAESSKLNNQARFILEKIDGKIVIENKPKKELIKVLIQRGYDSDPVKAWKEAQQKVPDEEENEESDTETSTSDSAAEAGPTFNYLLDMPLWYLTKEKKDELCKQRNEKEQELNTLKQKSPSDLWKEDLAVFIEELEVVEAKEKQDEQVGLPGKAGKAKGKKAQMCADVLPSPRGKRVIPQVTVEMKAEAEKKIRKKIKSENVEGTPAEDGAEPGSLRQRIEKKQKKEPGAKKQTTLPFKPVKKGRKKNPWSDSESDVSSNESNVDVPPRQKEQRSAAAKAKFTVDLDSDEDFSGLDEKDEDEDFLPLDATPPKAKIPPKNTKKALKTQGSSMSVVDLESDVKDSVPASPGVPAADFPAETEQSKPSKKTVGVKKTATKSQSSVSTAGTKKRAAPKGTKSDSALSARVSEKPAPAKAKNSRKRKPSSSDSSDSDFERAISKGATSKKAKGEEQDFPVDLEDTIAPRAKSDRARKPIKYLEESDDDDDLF
Method: as §1, §2, §3
Topoisomerase II-induced DNA cleavage reactions: DNA fragments were equilibrated with or without drug in 10 mM Tris-HCl, pH 7.5, 50 mM KCl, 5 mM MgCl2 0.1 mM EDTA, 1 mM ATP and 15 μg/ml bovine serum albumin for 5 minutes before addition of purified topoisomerase II (40 to 70 ng) or HL-60 nuclear extract in 20 μl final reaction volume. Reactions were stopped by adding sodium dodecyl sulfate (SDS) to a final concentration of 1% and proteinase K to 400 μg/ml, followed by incubation for 1 hour at 40° C.
For DNA sequence analysis, samples were precipitated with ethanol and resuspended in 2.5 μl loading buffer (80% formamide, 10 mM NaOH, 1 mM EDTA, 0.1% xylene cyanol and 0.1% bromophenol blue). Samples were heated to 90° C. and immediately loaded into DNA sequencing gels (6% polyacrylamide; 19:1, acrylamide:bis) containing 7M urea in (1×) TBE buffer. Electrophoresis was at 2500 V (60 W) for 4 hours. Gels were dried on 3M paper sheets and autoradiographed with Kodak XAR-2 film. See Pommier et al. (1991), supra.
Induction of top 2 cleavage by azatoxin was tested directly with the use of purified murine leukemia top 2. […] Sites of cleavage were also determined by DNA sequencing in the 5' flank of c-myc first intron.

[2] = tested on: top 2 (HL-60 nuclear extract); test: Induction of DNA double-strand breaks in SV40 DNA in presence of HL-60 nuclear extract; assay type: biochemical; settings: up to 1 mM
Method: as §1
as §3, with “Purification by phenol-chloroform extraction and ethanol precipitation were included between each step and at the end of the labeling procedures, pursuant to Pommier et al., J. Molec. Biol. 222: 909-24 (1991).” left out
For agarose gel analysis, 3 μl (10×) loading buffer (0.3% bromophenol blue, 16% Ficoll, 10 mM Na2 HPO4) was added to each sample which was then heated at 65° C. for 1-2 minutes before loading into an agarose gel made in (1×) TBE (89 mM Tris, 89 mM boric acid, 2 mM EDTA, pH8), in accordance with Fesen & Pommier (1989), supra. […] The quantification of drug-induced DNA double-strand breaks in the presence of HL-60 nuclear extract was effected as described in the next paragraph.
Radioactive gels were counted in betascope 603 blot analyzer. […] Drug-induced cleavage was expressed as: [formula] where C. and T. are the counts for cleaved and total DNA, respectively, in presence of nuclear extract without drug.
Drug-induced DNA double-strand breaks were measured first in SV40 DNA in the presence of HL-60 nuclear extracts. […]

Row | SMILES | top 2 inhibition / top 2 activity (in words) (Topoisomerase II) | Topoisomerase II inhibition (Topoisomerase II) | DNA unwinding (SV40 DNA) | further results
1 | COc1cc([C@@H]2c3cc4c(cc3C[C@H]3COC(=O)[C@@H]32)OCO4)cc(OC)c1O [DMDP, 4'-demethyl-4-desoxypodophyllotoxin, reference compound] |  |  | did not induce detectable DNA unwinding even at drug concentrations as high as 1 mM | top 2 cleavage sites induced (number/amount) ([1]; SV40 and c-myc DNA, purified murine top 2): induced less cleavage that azatoxin; top 2 cleavage pattern ([1]; compared with other top 2 inhibitors): at distinct cleavages sites
2 | COc1cc([C@H]2c3[nH]c4ccccc4c3C[C@H]3COC(=O)N32)cc(OC)c1O [Compound 10, 5S, 11aS-3-One-5,4,11,11a-tetrahydro-5-(3,5-dimethoxy-4-hydroxyphenyl)-1H, GH-oxazolo[3'4':1,6]pyrido[3,4-b]indole] | inactive | .largecircle. | did not induce detectable DNA unwinding even at drug concentrations as high as 1 mM | 
3 | COc1cc([C@@H]2c3cc4c(cc3[C@@H](O[C@@H]3O[C@@H]5CO[C@@H](C)O[C@H]5[C@H](O)[C@H]3O)[C@H]3COC(=O)[C@H]23)OCO4)cc(OC)c1O [VP-16, etoposide, reference compound] |  |  |  | suppression of DNA cleavage at high drug concentrations [2]: not suppressed at high drug concentrations (up to 1 mM)
4 | COc1cc([C@@H]2c3[nH]c4ccccc4c3C[C@@H]3COC(=O)N32)cc(OC)c1O [Compound 9, 5R,11aR-3-One-5,4,11,11a-tetrahydro-5-(3,5-dimethoxy-4-hydroxyphenyl)-1H, 6H-oxazolo[3'4':1,6']pyrido[3,4-b]indole] | inactive | .largecircle. |  | 
5 | COc1cc([C@@H]2c3cc4c(cc3[C@@H](O)[C@H]3COC(=O)[C@H]23)OCO4)cc(OC)c1O [DMEP, 4'-demethylepipodophyllotoxin, reference compound] |  |  | did not induce detectable DNA unwinding even at drug concentrations as high as 1 mM | effect of hydroxyl substitution on top 2 activity (Topoisomerase II): increases activity; top 2 cleavage potency (in words) [1]: at least as potent as VP-16

Continued, in another order:

Row | top 2 inhibition / top 2 activity (in words) (Topoisomerase II) | Topoisomerase II inhibition (Topoisomerase II) | SMILES | DNA unwinding (SV40 DNA) | further results
6 | inactivity | .largecircle. | COc1cc([C@@H]2c3c([nH]c4ccccc34)C[C@H]3COC(=O)N32)cc(OC)c1O (relative stereo) [Compound 8] | did not induce detectable DNA unwinding even at drug concentrations as high as 1 mM | 
7 | inactive | .largecircle. | COc1cc([C@@H]2C3=C(C[C@H]4COC(=O)N42)c2cccc4cccc3c24)cc(OC)c1O (relative stereo) [Compound 7, 5,11a-trans-3-one-5,4, 11, 11a-tetrahydro-5-(3,5-dimethoxy-4-hydroxyphenyl)-1H, 10H-oxazol [3', 4':1,6]pyrido[1,2-b]acenapthylene] |  | 
8 | abolished the top 2 activity | .largecircle. | O=C1OC[C@@H]2Cc3c([nH]c4ccccc34)[C@@H](c3ccc(O)cc3)N12 [Compound 3, 5R, 11aS-3-one-5,4,11,11a-tetrahydro-5-(4-hydroxyphenyl)-1H, 6H-oxazolo[3',4':1,6]pyrido[3,4-b]indole] |  | 
9 |  | .largecircle. | COc1cc([C@@H]2c3[nH]c4ccccc4c3C[C@H]3COC(=O)N32)cc(OC)c1OC [Compound 4, 5R,11aS-3-one-5,4,11,11a,tetrahydro-5-(3,4,5-trimethoxyphenyl)-1H, 6H-oxazolo[3',4':1,6]pyrido[3,4-b]indole] |  | 
10 | measurable but not strong top 2 activity |  | COc1cc([C@@H]2c3[nH]c4ccccc4c3[C@@H](O)[C@H]3COC(=O)N23)cc(OC)c1O [Compound 6, 5R,11R,11aS-3-One-11-hydroxy-5,4,11,11a-tetrahydro-5-(3,5-dimethoxy-4-hydroxyphenyl)-1H, 6H-oxazolo[3'4:1,6]pyrido[3,4-b]indole] |  | effect of hydroxyl substitution on top 2 activity (Topoisomerase II): significantly decreases top 2 activity
11 |  | .largecircle. | CS(=O)(=O)Nc1ccc([C@@H]2c3[nH]c4ccccc4c3C[C@H]3COC(=O)N32)cc1 [Compound 5] |  | 
12 |  | .smallcircle. | COc1cc([C@@H]2c3[nH]c4ccccc4c3C[C@H]3COC(=O)N32)ccc1O [Compound 2, 5R, 11aS-3-One-5,4,11,11a-tetrahydro-5-(3-methoxy-4-hydroxyphenyl)-1H, 6H-oxazolo[3', 4': 1.6]pyrido[3,4-b]indole] |  | factor of reduction of top 2 activity by monodemethoxylation of pendant ring (Topoisomerase II; versus azatoxin): 10
